# Results reported in ChEMBL document CHEMBL4765432, “Design and synthesis of novel Flavone-based histone deacetylase inhibitors antagonizing activation of STAT3 in breast cancer” (Eur J Med Chem, 2020).
# Activity calls are given as the source filed them. No cut-off for these calls is given here.
# Columns and labels:
# 4T1 [1] = assay: Induction of apoptosis in mouse 4T1 cells assessed as early apoptotic cells at 5 uM incubated for 72 hrs by annexinV-FITC and PI staining based flow cytometry analysis (reference value: 1.65 %); type: functional
# [2] = Toxicity in C57BL/6 mouse assessed death of organism at 50 mg/kg, po observed for 20 days; type: organism-based; settings: in vivo, 480 h, time 20 day
# 4T1 [3] = assay: Induction of apoptosis in mouse 4T1 cells assessed as late apoptotic cells at 2.5 uM incubated for 72 hrs by annexinV-FITC and PI staining based flow cytometry analysis (reference value: 2.24 %); type: functional
# Histone deacetylase 9 = Histone deacetylase 9 (Homo sapiens, UniProt Q9UKV0); assay: Inhibition of recombinant human N-terminal GST-tagged HDAC-9 (548 to end residues) expressed in baculovirus infected in Sf9 cells using Boc-Lys (q-Ac)-AMC as substrate incubated for 10 mins followed by substrate addition and measured after 30 mins by fluorescence based assay
# MDA-MB-231 [4] = assay: Induction of apoptosis in human MDA-MB-231 cells assessed as necrotic cells at 2.5 uM incubated for 72 hrs by annexinV-FITC and PI staining based flow cytometry analysis (reference value: 0.330 %); type: functional
# NCI-H1581 = assay: Cytotoxicity against human NCI-1581 cells assessed as reduction in cell viability incubated for 48 hrs by MTT assay; type: functional, cell-based; settings: NCI-H1581, 48 h
# MDA-MB-231 [5] = assay: Induction of apoptosis in human MDA-MB-231 cells assessed as effect on Bax expression at 0.5 to 10 uM incubated for 48 hrs by Western blot analysis; type: functional, cell-based; settings: dose 0.5-10 µM
# A549 = assay: Cytotoxicity against human A549 cells assessed as reduction in cell viability incubated for 48 hrs by MTT assay; type: functional, cell-based; settings: A549, 48 h
# [6] = Genotoxicity in Salmonella typhimurium TA1537 by Ames test; type: toxicity; settings: salmonella enterica subsp. enterica serovar typhimurium
# PANC-1 = assay: Cytotoxicity against human PANC-1 cells assessed as reduction in cell viability incubated for 48 hrs by MTT assay; type: functional, cell-based; settings: PANC-1, 48 h
# 4T1 [7] = assay: Induction of apoptosis in mouse 4T1 cells assessed as viable cells at 1 uM incubated for 72 hrs by annexinV-FITC and PI staining based flow cytometry analysis (reference value: 91.1 %); type: functional; settings: read-out: Activity
# 4T1 [8] = assay: Induction of apoptosis in mouse 4T1 cells implanted in BALB/c mouse assessed as increase in caspase-3 cleavage by immunohistochemistry method; type: functional, cell-based
# MDA-MB-231 [9] = assay: Induction of cell cycle arrest in human MDA-MB-231 cells assessed as G0/G1 phase accumulation at 1 uM incubated for 24 hrs by PI staining based flow cytometry analysis (reference value: 29.10 %); type: functional
# [10] = Tmax in Sprague-Dawley rat at 20 mg/kg, po measured upto 12 hrs by LC-MS/MS analysis; type: ADME, organism-based; settings: in vivo
# MDA-MB-231 [11] = assay: Induction of cell cycle arrest in human MDA-MB-231 cells assessed as increase in G0/G1 phase accumulation incubated for 24 hrs by flow cytometry analysis; type: functional, cell-based; settings: dose 1-2 µM
# MDA-MB-231 [12] = assay: Cytotoxicity against human MDA-MB-231 cells assessed as reduction in cell viability incubated for 48 hrs by MTT assay; type: functional, cell-based; settings: MDA-MB-231, 48 h
# Histone deacetylase 7 = Histone deacetylase 7 (Homo sapiens, UniProt Q8WUI4); assay: Inhibition of recombinant human N-terminal GST-tagged HDAC-7 (501 to end residues) expressed in baculovirus infected in Sf9 cells using Boc-Lys (q-Ac)-AMC as substrate incubated for 10 mins followed by substrate addition and measured after 30 mins by fluorescence based assay
# MDA-MB-231 [13] = assay: Induction of apoptosis in human MDA-MB-231 cells assessed as late apoptotic cells at 1 uM incubated for 72 hrs by annexinV-FITC and PI staining based flow cytometry analysis (reference value: 3.79 %); type: functional
# Histone deacetylase 2 = Histone deacetylase 2 (Homo sapiens, UniProt Q92769); assay: Inhibition of recombinant human C-terminal GST-tagged full length HDAC-2 expressed in baculovirus infected in Sf9 cells using Boc-Lys (q-Ac)-AMC as substrate incubated for 10 mins followed by substrate addition and measured after 30 mins by fluorescence based assay
# 4T1 [14] = assay: Cytotoxicity against mouse 4T1 cells assessed as reduction in cell viability incubated for 48 hrs by MTT assay; type: functional, cell-based; settings: 4T1, 48 h
# 4T1 [15] = assay: Induction of cell cycle arrest in mouse 4T1 cells assessed as G0/G1 phase accumulation at 2 uM incubated for 24 hrs by PI staining based flow cytometry analysis (reference value: 42.06 %); type: functional
# Histone deacetylase 5 = Histone deacetylase 5 (Homo sapiens, UniProt Q9UQL6); assay: Inhibition of recombinant human N-terminal GST-tagged HDAC-5 (617 to end residues) expressed in baculovirus infected in Sf9 cells at 10 uM using Boc-Lys (q-Ac)-AMC as substrate incubated for 10 mins followed by substrate addition and measured after 30 mins by fluorescence based assay relative to control; settings: time 40.0 min
# 4T1 [16] = assay: Induction of apoptosis in mouse 4T1 cells assessed as late apoptotic cells at 5 uM incubated for 72 hrs by annexinV-FITC and PI staining based flow cytometry analysis (reference value: 2.24 %); type: functional
# 4T1 [17] = assay: Induction of apoptosis in mouse 4T1 cells assessed as viable cells at 5 uM incubated for 72 hrs by annexinV-FITC and PI staining based flow cytometry analysis (reference value: 91.1 %); type: functional; settings: read-out: Activity
# MDA-MB-231 [18] = assay: Induction of apoptosis in human MDA-MB-231 cells assessed as effect on p53 expression at 0.5 to 10 uM incubated for 48 hrs by Western blot analysis; type: functional, cell-based; settings: dose 0.5-10 µM
# MDA-MB-231 [19] = assay: Potency index, ratio of IC50 of SAHA to IC50 of compound for cytotoxicity against human MDA-MB-231 cells assessed as reduction in cell viability incubated for 48 hrs by MTT assay; type: functional
# [20] = target: Voltage-gated inwardly rectifying potassium channel KCNH2 (Homo sapiens, UniProt Q12809); assay: Inhibition of human ERG
# Bcap37 = assay: Cytotoxicity against human Bcap37 cells assessed as reduction in cell viability incubated for 48 hrs by MTT assay; type: functional, cell-based; settings: Bcap37, 48 h
# [21] = Genotoxicity in Salmonella typhimurium WP2 uvrA (pKM 101) by Ames test; type: toxicity; settings: salmonella enterica subsp. enterica serovar typhimurium
# MCF7 = assay: Cytotoxicity against human MCF7 cells assessed as reduction in cell viability incubated for 48 hrs by MTT assay; type: functional, cell-based; settings: MCF7, 48 h
# MDA-MB-468 = assay: Potency index, ratio of IC50 of SAHA to IC50 of compound for cytotoxicity against human MDA-MB-468 cells assessed as reduction in cell viability incubated for 48 hrs by MTT assay; type: functional
# [22] = Toxicity in BALB/c mouse xenografted with mouse 4T1 cells assessed as effect on body weight at 20 mg/kg, ip administered for 22 days and measured on day 22; type: organism-based; settings: in vivo, 528 h, time 22 day
# [23] = Tmax in Sprague-Dawley rat at 20 mg/kg, iv measured upto 12 hrs by LC-MS/MS analysis; type: ADME, organism-based; settings: in vivo
# 4T1 [24] = assay: Induction of apoptosis in mouse 4T1 cells assessed as late apoptotic cells at 1 uM incubated for 72 hrs by annexinV-FITC and PI staining based flow cytometry analysis (reference value: 2.24 %); type: functional
# Chain of Voltage-gated inwardly rectifying potassium channel KCNH2 (Q12809 whole entry): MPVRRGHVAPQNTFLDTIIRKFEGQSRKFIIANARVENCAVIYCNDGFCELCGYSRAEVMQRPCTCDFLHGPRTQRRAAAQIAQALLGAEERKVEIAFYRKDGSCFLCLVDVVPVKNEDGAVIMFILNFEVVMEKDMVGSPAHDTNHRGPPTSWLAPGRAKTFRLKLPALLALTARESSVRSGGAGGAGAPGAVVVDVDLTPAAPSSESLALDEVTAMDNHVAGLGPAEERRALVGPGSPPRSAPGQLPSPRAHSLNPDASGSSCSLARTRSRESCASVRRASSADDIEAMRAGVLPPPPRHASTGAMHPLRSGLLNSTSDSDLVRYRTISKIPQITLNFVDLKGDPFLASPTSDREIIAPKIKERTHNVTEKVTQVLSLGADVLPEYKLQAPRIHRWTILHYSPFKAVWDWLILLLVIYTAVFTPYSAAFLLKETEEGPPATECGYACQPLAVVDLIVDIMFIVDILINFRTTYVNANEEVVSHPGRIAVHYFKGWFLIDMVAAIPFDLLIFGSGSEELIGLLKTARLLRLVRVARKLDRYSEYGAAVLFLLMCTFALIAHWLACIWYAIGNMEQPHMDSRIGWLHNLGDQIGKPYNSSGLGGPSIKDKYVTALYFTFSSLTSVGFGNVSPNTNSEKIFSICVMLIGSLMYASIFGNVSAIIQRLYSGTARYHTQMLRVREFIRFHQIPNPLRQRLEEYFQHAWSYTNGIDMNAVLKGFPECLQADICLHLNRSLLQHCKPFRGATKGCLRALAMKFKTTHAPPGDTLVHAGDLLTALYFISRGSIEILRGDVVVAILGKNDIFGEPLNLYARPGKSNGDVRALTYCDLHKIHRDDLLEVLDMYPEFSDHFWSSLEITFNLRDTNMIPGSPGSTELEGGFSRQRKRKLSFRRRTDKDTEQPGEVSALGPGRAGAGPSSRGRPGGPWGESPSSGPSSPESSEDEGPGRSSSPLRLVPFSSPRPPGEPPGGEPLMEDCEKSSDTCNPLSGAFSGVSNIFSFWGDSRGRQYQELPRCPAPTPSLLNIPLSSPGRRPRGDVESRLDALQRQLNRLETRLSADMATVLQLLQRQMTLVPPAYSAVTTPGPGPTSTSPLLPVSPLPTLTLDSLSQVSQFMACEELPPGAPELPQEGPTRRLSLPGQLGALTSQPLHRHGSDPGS
# Chain of Histone deacetylase 5 (Q9UQL6 whole entry): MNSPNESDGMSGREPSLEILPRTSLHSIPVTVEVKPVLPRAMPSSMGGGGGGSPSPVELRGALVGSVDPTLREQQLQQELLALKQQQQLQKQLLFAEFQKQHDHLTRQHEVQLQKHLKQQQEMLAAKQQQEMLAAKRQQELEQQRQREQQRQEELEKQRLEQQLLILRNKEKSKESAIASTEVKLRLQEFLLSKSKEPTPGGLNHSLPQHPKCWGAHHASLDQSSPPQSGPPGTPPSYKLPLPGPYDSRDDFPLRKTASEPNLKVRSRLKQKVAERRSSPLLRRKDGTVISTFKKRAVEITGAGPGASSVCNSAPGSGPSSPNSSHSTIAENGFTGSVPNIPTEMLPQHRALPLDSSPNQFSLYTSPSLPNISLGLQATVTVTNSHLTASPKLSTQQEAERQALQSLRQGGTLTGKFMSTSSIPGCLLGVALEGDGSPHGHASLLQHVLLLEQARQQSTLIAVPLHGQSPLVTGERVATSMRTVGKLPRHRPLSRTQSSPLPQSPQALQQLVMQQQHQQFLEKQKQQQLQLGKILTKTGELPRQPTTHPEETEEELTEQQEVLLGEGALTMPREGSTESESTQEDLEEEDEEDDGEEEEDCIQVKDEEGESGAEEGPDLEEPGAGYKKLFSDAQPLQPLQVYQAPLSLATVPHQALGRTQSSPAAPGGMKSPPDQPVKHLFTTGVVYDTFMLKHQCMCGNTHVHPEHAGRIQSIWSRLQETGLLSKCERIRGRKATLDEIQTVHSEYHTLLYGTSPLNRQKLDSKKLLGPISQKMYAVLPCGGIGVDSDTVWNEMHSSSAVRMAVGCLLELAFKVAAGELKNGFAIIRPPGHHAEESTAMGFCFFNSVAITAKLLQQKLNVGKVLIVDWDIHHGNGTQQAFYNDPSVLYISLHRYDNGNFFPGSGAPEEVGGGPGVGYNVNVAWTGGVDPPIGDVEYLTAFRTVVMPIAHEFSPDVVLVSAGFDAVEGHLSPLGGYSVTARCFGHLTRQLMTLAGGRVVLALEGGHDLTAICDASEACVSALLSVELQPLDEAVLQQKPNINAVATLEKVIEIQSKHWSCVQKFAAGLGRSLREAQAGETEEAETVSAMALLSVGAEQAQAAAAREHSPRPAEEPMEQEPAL
# Chain of Histone deacetylase 9 (Q9UKV0 whole entry): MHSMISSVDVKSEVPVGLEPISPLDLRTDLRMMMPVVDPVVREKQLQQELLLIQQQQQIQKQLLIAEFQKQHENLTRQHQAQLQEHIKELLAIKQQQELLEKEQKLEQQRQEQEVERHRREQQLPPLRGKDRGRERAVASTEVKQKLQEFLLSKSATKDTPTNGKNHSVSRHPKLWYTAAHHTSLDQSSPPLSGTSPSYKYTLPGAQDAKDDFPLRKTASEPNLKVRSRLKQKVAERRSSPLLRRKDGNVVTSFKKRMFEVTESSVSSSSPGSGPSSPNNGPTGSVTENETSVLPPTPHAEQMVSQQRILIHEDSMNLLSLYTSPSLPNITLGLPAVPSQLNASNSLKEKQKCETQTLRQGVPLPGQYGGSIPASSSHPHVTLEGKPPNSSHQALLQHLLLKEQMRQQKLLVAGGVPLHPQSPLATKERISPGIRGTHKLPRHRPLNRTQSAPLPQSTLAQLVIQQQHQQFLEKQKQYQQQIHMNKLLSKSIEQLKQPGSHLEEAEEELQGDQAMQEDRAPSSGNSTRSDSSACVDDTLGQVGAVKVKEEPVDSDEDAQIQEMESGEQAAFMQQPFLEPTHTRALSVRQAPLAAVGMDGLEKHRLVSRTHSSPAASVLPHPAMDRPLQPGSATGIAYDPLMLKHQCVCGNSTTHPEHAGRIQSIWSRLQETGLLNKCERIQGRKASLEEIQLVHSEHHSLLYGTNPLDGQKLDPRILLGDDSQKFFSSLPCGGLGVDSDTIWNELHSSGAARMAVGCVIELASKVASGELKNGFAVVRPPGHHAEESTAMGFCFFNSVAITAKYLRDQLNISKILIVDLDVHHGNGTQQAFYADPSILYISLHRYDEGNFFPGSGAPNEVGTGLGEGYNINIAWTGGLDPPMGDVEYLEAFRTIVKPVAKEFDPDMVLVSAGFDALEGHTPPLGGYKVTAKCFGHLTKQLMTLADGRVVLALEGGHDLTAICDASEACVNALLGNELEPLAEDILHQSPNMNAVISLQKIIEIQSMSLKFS
# Chain of Histone deacetylase 7 (Q8WUI4 whole entry): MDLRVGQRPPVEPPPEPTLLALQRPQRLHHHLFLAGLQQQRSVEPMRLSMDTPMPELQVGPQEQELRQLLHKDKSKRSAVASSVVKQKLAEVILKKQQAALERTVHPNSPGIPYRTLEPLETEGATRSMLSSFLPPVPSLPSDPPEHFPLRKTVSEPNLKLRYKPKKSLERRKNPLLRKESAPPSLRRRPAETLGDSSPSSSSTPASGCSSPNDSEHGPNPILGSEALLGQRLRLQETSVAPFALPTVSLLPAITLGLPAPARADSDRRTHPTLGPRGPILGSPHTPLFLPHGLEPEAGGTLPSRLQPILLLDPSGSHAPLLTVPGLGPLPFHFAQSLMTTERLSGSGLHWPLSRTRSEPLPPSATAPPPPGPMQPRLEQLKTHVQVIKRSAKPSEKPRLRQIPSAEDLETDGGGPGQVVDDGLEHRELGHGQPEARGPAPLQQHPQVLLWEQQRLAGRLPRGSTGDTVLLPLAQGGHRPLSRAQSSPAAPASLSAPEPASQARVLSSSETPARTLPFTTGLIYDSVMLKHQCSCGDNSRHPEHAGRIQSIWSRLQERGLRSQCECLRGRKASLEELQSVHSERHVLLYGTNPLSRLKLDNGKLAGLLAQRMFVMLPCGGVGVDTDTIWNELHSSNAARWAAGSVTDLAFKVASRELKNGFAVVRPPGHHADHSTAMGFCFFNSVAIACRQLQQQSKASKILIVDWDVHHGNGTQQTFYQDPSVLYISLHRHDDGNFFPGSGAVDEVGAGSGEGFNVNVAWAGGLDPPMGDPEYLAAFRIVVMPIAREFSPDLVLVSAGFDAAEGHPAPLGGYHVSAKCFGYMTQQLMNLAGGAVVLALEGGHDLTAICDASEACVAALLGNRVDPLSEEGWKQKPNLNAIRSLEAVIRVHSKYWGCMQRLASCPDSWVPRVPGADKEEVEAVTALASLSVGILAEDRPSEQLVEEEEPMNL
# Chain of Histone deacetylase 2 (Q92769 whole entry): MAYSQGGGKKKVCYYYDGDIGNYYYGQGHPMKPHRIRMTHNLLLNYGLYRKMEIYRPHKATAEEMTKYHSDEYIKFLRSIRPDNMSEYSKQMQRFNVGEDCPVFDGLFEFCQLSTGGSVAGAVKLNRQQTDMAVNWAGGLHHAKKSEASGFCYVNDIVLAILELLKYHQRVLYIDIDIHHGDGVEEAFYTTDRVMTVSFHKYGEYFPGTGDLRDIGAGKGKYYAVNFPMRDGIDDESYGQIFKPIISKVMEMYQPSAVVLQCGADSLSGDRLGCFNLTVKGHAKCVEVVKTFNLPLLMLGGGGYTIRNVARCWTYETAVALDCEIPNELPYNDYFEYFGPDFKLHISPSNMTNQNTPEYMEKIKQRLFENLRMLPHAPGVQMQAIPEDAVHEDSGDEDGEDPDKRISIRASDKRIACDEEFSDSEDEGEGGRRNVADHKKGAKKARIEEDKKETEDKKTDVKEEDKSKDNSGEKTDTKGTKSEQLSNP
structure (smiles),measurement,setting,value
CN(C)CCOc1ccc(-c2cc(=O)c3c(O)cc(OCCCCCC(=O)NO)cc3o2)cc1.Cl,Activity,4T1 [1],54.9%
same,Activity,[2],Non-Toxic
same,Activity,4T1 [3],33.9%
same,IC50,Histone deacetylase 9,> 10000 nM
same,Activity,MDA-MB-231 [4],0.11%
same,IC50,NCI-H1581,2320 nM
same,Activity,MDA-MB-231 [5],inactive
same,IC50,A549,1080 nM
same,Activity,[6],Non-Toxic
same,IC50,PANC-1,> 10000 nM
same,viability at 1 µM,4T1 [7],72.3%
same,Activity,4T1 [8],Active
same,Activity,MDA-MB-231 [9],49.09%
same,Tmax,[10],20 min
same,Activity,MDA-MB-231 [11],Dose-dependent effect
same,IC50,MDA-MB-231 [12],2050 nM
same,IC50,Histone deacetylase 7,> 10000 nM
same,Activity,MDA-MB-231 [13],12%
same,IC50,Histone deacetylase 2,58.5 nM
same,IC50,4T1 [14],1990 nM
same,Activity,4T1 [15],62.91%
same,inhibition,Histone deacetylase 5,38%
same,Activity,4T1 [16],21.9%
same,viability at 5 µM,4T1 [17],22.5%
same,Activity,MDA-MB-231 [18],inactive
same,Ratio IC50,MDA-MB-231 [19],2
same,IC50,[20],1200 nM
same,IC50,Bcap37,3280 nM
same,Activity,[21],Non-Toxic
same,IC50,MCF7,4700 nM
same,Ratio IC50,MDA-MB-468,2
same,Activity,[22],Non-Toxic
same,Tmax,[23],4.98 min
same,Activity,4T1 [24],8.59%
